# Results taken from ChEMBL document CHEMBL3046723, “Ionic liquids with herbicidal anions” (Tetrahedron, 2011).
# The source made the active and inactive calls. The calls are words filed in the database; no cut-off is given here.
# Tests used:
# [1] = Acute toxicity in po dosed Rattus norvegicus Wistar (rat); type: organism-based; settings: in vivo
# Brassica napus [2] = assay: Herbicidal activity against Brassica napus (oilseed rape) in winter wheat crop field at 600 g/ha applied at the end of tillering stage of crop measured at 4 weeks post-drug dosage; type: functional
# Matricaria [3] = assay: Herbicidal activity against Matricaria inodora in winter wheat crop field at 600 g/ha applied at the end of tillering stage of crop measured at 4 weeks post-drug dosage; type: functional
# Triticum aestivum [4] = assay: Increase in winter Triticum aestivum (wheat) crop yield assessed as gluten content at 600 g/ha applied at the end of tillering stage of crop measured at 4 weeks post-drug dosage (reference value: 25.95%); type: functional
# Triticum aestivum [5] = assay: Increase in winter Triticum aestivum (wheat) crop yield assessed as weight of 1000 grains at 600 g/ha applied at the end of tillering stage of crop measured at 4 weeks post-drug dosage (reference value: 37.79 g); type: functional
# Thlaspi arvense [6] = assay: Herbicidal activity against Thlaspi arvense in winter wheat crop field at 600 g/ha applied at the end of tillering stage of crop measured at 4 weeks post-drug dosage; type: functional
# Triticum aestivum [7] = assay: Increase in winter Triticum aestivum (wheat) crop yield assessed as protein content at 600 g/ha applied at the end of tillering stage of crop measured at 4 weeks post-drug dosage (reference value: 11.12%); type: functional
# Triticum aestivum [8] = assay: Increase in winter Triticum aestivum (wheat) crop yield at 600 g/ha applied at the end of tillering stage of crop measured at 4 weeks post-drug dosage (reference value: 7.40 t/ha); type: functional
# Consolida regalis [9] = assay: Herbicidal activity against Consolida regalis in winter wheat crop field at 600 g/ha applied at the end of tillering stage of crop measured at 4 weeks post-drug dosage; type: functional
# Centaurea cyanus = assay: Herbicidal activity against Centaurea cyanus measured at 4 weeks post-drug dosage; type: functional, organism-based
# Myosotis arvensis = assay: Herbicidal activity against Myosotis arvensis measured at 4 weeks post-drug dosage; type: functional, organism-based
# Thlaspi arvense [10] = assay: Herbicidal activity against Thlaspi arvense measured at 4 weeks post-drug dosage; type: functional, organism-based
# Triticum aestivum [11] = assay: Reduction in Triticum aestivum (wheat) stem length applied at the end of tillering stage of crop measured at 4 weeks post-drug dosage; type: functional, organism-based
# Euphorbia helioscopia = assay: Herbicidal activity against Euphorbia helioscopia measured at 4 weeks post-drug dosage; type: functional, organism-based
# Chenopodium album = assay: Herbicidal activity against Chenopodium album measured at 4 weeks post-drug dosage; type: functional, organism-based
# Viola arvensis = assay: Herbicidal activity against Viola arvensis measured at 4 weeks post-drug dosage; type: functional, organism-based
# Brassica napus [12] = assay: Herbicidal activity against Brassica napus (oilseed rape) measured at 4 weeks post-drug dosage; type: functional, organism-based
# Triticum aestivum [13] = assay: Increase in winter Triticum aestivum (wheat) crop yield at 900 g/ha applied at the end of tillering stage of crop measured at 4 weeks post-drug dosage (reference value: 7.40 t/ha); type: functional
# Triticum aestivum [14] = assay: Increase in winter Triticum aestivum (wheat) crop yield assessed as weight of 1000 grains at 900 g/ha applied at the end of tillering stage of crop measured at 4 weeks post-drug dosage (reference value: 37.79 g); type: functional
# Thlaspi arvense [15] = assay: Herbicidal activity against Thlaspi arvense in winter wheat crop field at 900 g/ha applied at the end of tillering stage of crop measured at 4 weeks post-drug dosage; type: functional
# Consolida regalis [16] = assay: Herbicidal activity against Consolida regalis in winter wheat crop field at 900 g/ha applied at the end of tillering stage of crop measured at 4 weeks post-drug dosage; type: functional
# Triticum aestivum [17] = assay: Increase in winter Triticum aestivum (wheat) crop yield assessed as protein content at 900 g/ha applied at the end of tillering stage of crop measured at 4 weeks post-drug dosage (reference value: 11.12%); type: functional
# Matricaria [18] = assay: Herbicidal activity against Matricaria inodora in winter wheat crop field at 900 g/ha applied at the end of tillering stage of crop measured at 4 weeks post-drug dosage; type: functional
# Triticum aestivum [19] = assay: Increase in winter Triticum aestivum (wheat) crop yield assessed as gluten content at 900 g/ha applied at the end of tillering stage of crop measured at 4 weeks post-drug dosage (reference value: 25.95%); type: functional
# Brassica napus [20] = assay: Herbicidal activity against Brassica napus (oilseed rape) in winter wheat crop field at 900 g/ha applied at the end of tillering stage of crop measured at 4 weeks post-drug dosage; type: functional
compound,measurement,setting,value
C[N+](C)(C)CCl.Cc1cc(Cl)ccc1OCC(=O)[O-] [listing 1 of 2 here],LD50,[1],300 mg/kg
C[N+](C)(C)CCCl.[Cl-] [CHLORMEQUAT CHLORIDE],LD50,[1],1300 mg/kg
Cc1cc(Cl)ccc1OCC(=O)O [METAXON],LD50,[1],962 mg/kg
CCCCC(CC)OC(=O)COc1ccc(Cl)cc1C (centres undefined),LD50,[1],1300 mg/kg
same,Activity,Brassica napus [2],100%
same,Activity,Matricaria [3],62%
same,Activity,Triticum aestivum [4],27.12%
same,Activity,Triticum aestivum [5],39.78 g
same,Activity,Thlaspi arvense [6],100%
same,Activity,Triticum aestivum [7],11.03%
same,Crop_yield,Triticum aestivum [8],7.8 tons/ha
same,Activity,Consolida regalis [9],95%
C[N+](C)(C)CCl.Cc1cc(Cl)ccc1OCC(=O)[O-] [listing 2 of 2 here],Activity,Centaurea cyanus,Active
same,Activity,Myosotis arvensis,Active
same,Activity,Thlaspi arvense [10],Active
same,inhibition,Triticum aestivum [11],Active
same,Activity,Euphorbia helioscopia,Active
same,Activity,Chenopodium album,Active
same,Activity,Viola arvensis,Active
same,Activity,Brassica napus [12],Active
CCCCCCCCCC[N+](C)(C)CCCCCCCCCC.Cc1cc(Cl)ccc1OCC(=O)[O-],LD50,[1],300 mg/kg
Cc1cc(Cl)ccc1OCC(=O)[O-].[Na+],Crop_yield,Triticum aestivum [13],7.81 tons/ha
same,Activity,Triticum aestivum [14],39.3 g
same,Activity,Thlaspi arvense [15],100%
same,Activity,Consolida regalis [16],96%
same,Activity,Triticum aestivum [17],11.08%
same,Activity,Matricaria [18],56%
same,Activity,Triticum aestivum [19],27.33%
same,Activity,Brassica napus [20],100%
